In this assay the test system is rat whole brain proteins. The assay can be described thus: Rat whole brain photo-cross-linking, biotin-streptavidin pulldown and LC/MS proteomics (interactome). The following applies: probe 50 μM; rat whole brain minus olfactory bulb. The assay is classed as binding, Sprague Dawley rat. An excerpt:
Whole brain assays were designed to assay the binding partners of 5 and 7, as well as a control for the inherent binding of the benzophenone cross-linker using molecule 16 (Figure 7). […] We chose this methodology to maximize the amount of unique hits we were likely to record. A drawback to this assay, however, is that GPCRs need highly specific extraction/purification conditions to be detected by LC-MS (or other protein detection methodologies) at the end point. Thus, by biasing our assay toward a “wide lens” to record a picture of diverse interactions, we missed the specific focus necessary to observe DRD2 and structurally related GPCRs, and we were unable to directly observe DRD2 in the proteomic analysis.
To perform the assay, the whole brain minus the olfactory bulb from an adult female Sprague Dawley rat was homogenized and treated with probes or linker control 16 at a 50 μM concentration and photo-cross-linked. A streptavidin resin was used to deplete endogenous biotin and then clicked with azido biotin, followed by streptavidin pulldown. The streptavidin beads were processed by tryptic digest, followed by LC/MS proteomic analysis. […]
To prepare the homogenate, adult rat brain tissue was microdissected and the olfactory bulb was discarded and sliced into 1 mm pieces. […] The total protein concentration was determined via BCA assay (Pierce) and adjusted to 6 mg/mL. […]

Entries after “also recorded” stand apart in the source; their conditions may differ.

On to `C#CCOc1ccc(C(=O)c2ccc(CN[C@H]3CCc4nc(N)sc4C3)cc2)cc1` [Compound 7, (S)-(4-(((2-Amino-4,5,6,7-tetrahydrobenzo[d]thiazol-6-yl)amino)methyl)phenyl)(4-(prop-2-yn-1-yloxy)phenyl)methanone], for which the “protein hits of the pulldown (in words)” value was “bound other protein networks including the retrograde endocannabinoid signaling pathway, neuronal nitric oxide synthase, GABA receptor components, and muscarinic acetylcholine receptor M1”. Under `C#CCOc1ccc(C(=O)c2ccc(CNCCc3cccc4c3CC(=O)N4)cc2)cc1` [Compound 5, 4-(2-((4-(4-(Prop-2-yn-1-yloxy)benzoyl)benzyl)amino)ethyl)indolin-2-one] stands “muscarinic acetylcholine receptor M1 and CB1 cannabinoid receptor-interacting protein 1; also recorded: bound other protein networks including the retrograde endocannabinoid signaling pathway, neuronal nitric oxide synthase, GABA receptor components, and muscarinic acetylcholine receptor M1”.
